Measurements reported in patent US20100160454A1, “ANTIMICROBIAL AGENTS, COMPOSITIONS AND PRODUCTS CONTAINING THE SAME, AND METHODS OF USING THE COMPOSITIONS AND PRODUCTS” (Eastman Chemical Company, priority 2008, published 2010).

Experiments:
Test in all cases: Microbiological challenge testing in BPW broth, graded subculture counts
Type in all cases: cell-based
[1] = system: Burkholderia cepacia Wild type; details: B. cepacia
Method in brief: (§1)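 TSB + 1% dextrose cultures, 35 ± 2 °C, ≥96 h. Inoculum calibrated by NTU vs plate counts; challenge at 10^5–10^6 CFU/mL final in BPW/1% dextrose with test material. Triplicates (butoxyethanol in duplicate). Spread plates on PCA, ≥48 h, CFU/mL = count × dilution.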

[2] = system: Streptococcus mutans ATCC 35668
Method in brief: as §1

[3] = system: Bacillus subtilis Wild type
Method in brief: as §1

[4] = system: Staphylococcus aureus ATCC 25923; details: S. aureus
Method in brief: as §1

[5] = system: Staphylococcus epidermidis ATCC 12228
Method in brief: as §1

[6] = system: Aeromonas sp. Wild type
Method in brief: as §1

OCC1CCCC(CO)C1 (stereo not drawn) [1,3-CHDM, 1,3-cyclohexanedimethanol]
Grade ([1]; 0.5% (wt/vol), 3 day): 5 (More than 10,000 colonies estimated (thus more than 100,000 CFU/mL)) | Grade ([1]; 0.5% (wt/vol), 14 day): 5 (More than 10,000 colonies estimated (thus more than 100,000 CFU/mL)) | Grade ([1]; 0.5% (wt/vol), 30 day): 5 (More than 10,000 colonies estimated (thus more than 100,000 CFU/mL)) | Grade ([1]; 1.25% (wt/vol), 3 day): 4.7 | Grade ([1]; 1.25% (wt/vol), 14 day): 4.7 | Grade ([1]; 1.25% (wt/vol), 30 day): 4.7 | Grade ([1]; 2.5% (wt/vol), 3 day): 4 (1000 to 10,000 colonies countable (thus 10,000 CFU/mL to 100,000 CFU/mL)) | Grade ([1]; 2.5% (wt/vol), 14 day): 4 (1000 to 10,000 colonies countable (thus 10,000 CFU/mL to 100,000 CFU/mL)) | Grade ([1]; 2.5% (wt/vol), 30 day): 4 (1000 to 10,000 colonies countable (thus 10,000 CFU/mL to 100,000 CFU/mL)) | Grade ([1]; 5.0% (wt/vol), 3 day): 3 (100 to 1000 colonies (thus 1000 to 10,000 CFU/mL)) | Grade ([1]; 5.0% (wt/vol), 14 day): 1 (0 to 51 colonies counted (thus 10 to 510 CFU/mL based on 0.1-mL sample)) | Grade ([1]; 5.0% (wt/vol), 30 day): 3.3 | S. mutans growth grade, 3 day ([2]; 0.5% weight/volume): 5 (More than 10,000 colonies estimated (thus more than 100,000 CFU/mL)) | S. mutans growth grade, 13 day ([2]; 0.5% weight/volume): 4 (1000 to 10,000 colonies countable (thus 10,000 CFU/mL to 100,000 CFU/mL)) | S. mutans growth grade, 30 day ([2]; 0.5% weight/volume): 4 (1000 to 10,000 colonies countable (thus 10,000 CFU/mL to 100,000 CFU/mL)) | S. mutans growth grade, 3 day ([2]; 1.25% weight/volume): 4 (1000 to 10,000 colonies countable (thus 10,000 CFU/mL to 100,000 CFU/mL)) | S. mutans growth grade, 13 day ([2]; 1.25% weight/volume): 4 (1000 to 10,000 colonies countable (thus 10,000 CFU/mL to 100,000 CFU/mL)) | S. mutans growth grade, 30 day ([2]; 1.25% weight/volume): 4 (1000 to 10,000 colonies countable (thus 10,000 CFU/mL to 100,000 CFU/mL)) | S. mutans growth grade, 3 day ([2]; 2.5% weight/volume): 4 (1000 to 10,000 colonies countable (thus 10,000 CFU/mL to 100,000 CFU/mL)) | S. mutans growth grade, 13 day ([2]; 2.5% weight/volume): 4 (1000 to 10,000 colonies countable (thus 10,000 CFU/mL to 100,000 CFU/mL)) | S. mutans growth grade, 30 day ([2]; 2.5% weight/volume): 4 (1000 to 10,000 colonies countable (thus 10,000 CFU/mL to 100,000 CFU/mL)) | S. mutans growth grade, 3 day ([2]; 5.0% weight/volume): 2 (52 to 100 colonies counted (thus 520 to 1000 CFU/mL)) | S. mutans growth grade, 13 day ([2]; 5.0% weight/volume): 0 | S. mutans growth grade, 30 day ([2]; 5.0% weight/volume): 0 | B. subtillis growth grade, 3 day ([3]; 0.5% weight/volume): 4 (1000 to 10,000 colonies countable (thus 10,000 CFU/mL to 100,000 CFU/mL)) | B. subtillis growth grade, 14 day ([3]; 0.5% weight/volume): 4 (1000 to 10,000 colonies countable (thus 10,000 CFU/mL to 100,000 CFU/mL)) | B. subtillis growth grade, 30 day ([3]; 0.5% weight/volume): 4 (1000 to 10,000 colonies countable (thus 10,000 CFU/mL to 100,000 CFU/mL)) | B. subtillis growth grade, 3 day ([3]; 1.25% weight/volume): 4 (1000 to 10,000 colonies countable (thus 10,000 CFU/mL to 100,000 CFU/mL)) | B. subtillis growth grade, 14 day ([3]; 1.25% weight/volume): 4 (1000 to 10,000 colonies countable (thus 10,000 CFU/mL to 100,000 CFU/mL)) | B. subtillis growth grade, 30 day ([3]; 1.25% weight/volume): 4 (1000 to 10,000 colonies countable (thus 10,000 CFU/mL to 100,000 CFU/mL)) | B. subtillis growth grade, 3 day ([3]; 2.5% weight/volume): 4 (1000 to 10,000 colonies countable (thus 10,000 CFU/mL to 100,000 CFU/mL)) | B. subtillis growth grade, 14 day ([3]; 2.5% weight/volume): 4 (1000 to 10,000 colonies countable (thus 10,000 CFU/mL to 100,000 CFU/mL)) | B. subtillis growth grade, 30 day ([3]; 2.5% weight/volume): 4 (1000 to 10,000 colonies countable (thus 10,000 CFU/mL to 100,000 CFU/mL)) | B. subtillis growth grade, 3 day ([3]; 5.0% weight/volume): 4 (1000 to 10,000 colonies countable (thus 10,000 CFU/mL to 100,000 CFU/mL)) | B. subtillis growth grade, 14 day ([3]; 5.0% weight/volume): 4 (1000 to 10,000 colonies countable (thus 10,000 CFU/mL to 100,000 CFU/mL)) | B. subtillis growth grade, 30 day ([3]; 5.0% weight/volume): 4 (1000 to 10,000 colonies countable (thus 10,000 CFU/mL to 100,000 CFU/mL)) | Grade ([4]; 0.5% (wt/vol), 3 day): 5 (More than 10,000 colonies estimated (thus more than 100,000 CFU/mL)) | Grade ([4]; 0.5% (wt/vol), 14 day): 5 (More than 10,000 colonies estimated (thus more than 100,000 CFU/mL)) | Grade ([4]; 0.5% (wt/vol), 30 day): 5 (More than 10,000 colonies estimated (thus more than 100,000 CFU/mL)) | Grade ([4]; 1.25% (wt/vol), 3 day): 4 (1000 to 10,000 colonies countable (thus 10,000 CFU/mL to 100,000 CFU/mL)) | Grade ([4]; 1.25% (wt/vol), 14 day): 4 (1000 to 10,000 colonies countable (thus 10,000 CFU/mL to 100,000 CFU/mL)) | Grade ([4]; 1.25% (wt/vol), 30 day): 4 (1000 to 10,000 colonies countable (thus 10,000 CFU/mL to 100,000 CFU/mL)) | Grade ([4]; 2.5% (wt/vol), 3 day): 4 (1000 to 10,000 colonies countable (thus 10,000 CFU/mL to 100,000 CFU/mL)) | Grade ([4]; 2.5% (wt/vol), 14 day): 4 (1000 to 10,000 colonies countable (thus 10,000 CFU/mL to 100,000 CFU/mL)) | Grade ([4]; 2.5% (wt/vol), 30 day): 4 (1000 to 10,000 colonies countable (thus 10,000 CFU/mL to 100,000 CFU/mL)) | Grade ([4]; 5.0% (wt/vol), 3 day): 4 (1000 to 10,000 colonies countable (thus 10,000 CFU/mL to 100,000 CFU/mL)) | Grade ([4]; 5.0% (wt/vol), 14 day): 3 (100 to 1000 colonies (thus 1000 to 10,000 CFU/mL)) | Grade ([4]; 5.0% (wt/vol), 30 day): 4 (1000 to 10,000 colonies countable (thus 10,000 CFU/mL to 100,000 CFU/mL)) | S. epidermidis growth grade, 3 day ([5]; 0.5% weight/volume): 4 (1000 to 10,000 colonies countable (thus 10,000 CFU/mL to 100,000 CFU/mL)) | S. epidermidis growth grade, 13 day ([5]; 0.5% weight/volume): 4 (1000 to 10,000 colonies countable (thus 10,000 CFU/mL to 100,000 CFU/mL)) | S. epidermidis growth grade, 30 day ([5]; 0.5% weight/volume): 4 (1000 to 10,000 colonies countable (thus 10,000 CFU/mL to 100,000 CFU/mL)) | S. epidermidis growth grade, 3 day ([5]; 1.25% weight/volume): 4 (1000 to 10,000 colonies countable (thus 10,000 CFU/mL to 100,000 CFU/mL)) | S. epidermidis growth grade, 13 day ([5]; 1.25% weight/volume): 3.7 | S. epidermidis growth grade, 30 day ([5]; 1.25% weight/volume): 4 (1000 to 10,000 colonies countable (thus 10,000 CFU/mL to 100,000 CFU/mL)) | S. epidermidis growth grade, 3 day ([5]; 2.5% weight/volume): 4 (1000 to 10,000 colonies countable (thus 10,000 CFU/mL to 100,000 CFU/mL)) | S. epidermidis growth grade, 13 day ([5]; 2.5% weight/volume): 3 (100 to 1000 colonies (thus 1000 to 10,000 CFU/mL)) | S. epidermidis growth grade, 30 day ([5]; 2.5% weight/volume): 4 (1000 to 10,000 colonies countable (thus 10,000 CFU/mL to 100,000 CFU/mL)) | S. epidermidis growth grade, 3 day ([5]; 5.0% weight/volume): 2 (52 to 100 colonies counted (thus 520 to 1000 CFU/mL)) | S. epidermidis growth grade, 13 day ([5]; 5.0% weight/volume): 1 (0 to 51 colonies counted (thus 10 to 510 CFU/mL based on 0.1-mL sample)) | S. epidermidis growth grade, 30 day ([5]; 5.0% weight/volume): 3 (100 to 1000 colonies (thus 1000 to 10,000 CFU/mL)) | Aeromonas sp growth grade, 3 day ([6]; 0.5% weight/volume): 5 (More than 10,000 colonies estimated (thus more than 100,000 CFU/mL)) | Aeromonas sp growth grade, 14 day ([6]; 0.5% weight/volume): 4 (1000 to 10,000 colonies countable (thus 10,000 CFU/mL to 100,000 CFU/mL)) | Aeromonas sp growth grade, 30 day ([6]; 0.5% weight/volume): 4 (1000 to 10,000 colonies countable (thus 10,000 CFU/mL to 100,000 CFU/mL)) | Aeromonas sp growth grade, 3 day ([6]; 1.25% weight/volume): 4 (1000 to 10,000 colonies countable (thus 10,000 CFU/mL to 100,000 CFU/mL)) | Aeromonas sp growth grade, 14 day ([6]; 1.25% weight/volume): 4 (1000 to 10,000 colonies countable (thus 10,000 CFU/mL to 100,000 CFU/mL)) | Aeromonas sp growth grade, 30 day ([6]; 1.25% weight/volume): 4 (1000 to 10,000 colonies countable (thus 10,000 CFU/mL to 100,000 CFU/mL)) | Aeromonas sp growth grade, 3 day ([6]; 2.5% weight/volume): 4 (1000 to 10,000 colonies countable (thus 10,000 CFU/mL to 100,000 CFU/mL)) | Aeromonas sp growth grade, 14 day ([6]; 2.5% weight/volume): 4 (1000 to 10,000 colonies countable (thus 10,000 CFU/mL to 100,000 CFU/mL)) | Aeromonas sp growth grade, 30 day ([6]; 2.5% weight/volume): 4 (1000 to 10,000 colonies countable (thus 10,000 CFU/mL to 100,000 CFU/mL)) | Aeromonas sp growth grade, 3 day ([6]; 5.0% weight/volume): 4 (1000 to 10,000 colonies countable (thus 10,000 CFU/mL to 100,000 CFU/mL)) | Aeromonas sp growth grade, 14 day ([6]; 5.0% weight/volume): 4 (1000 to 10,000 colonies countable (thus 10,000 CFU/mL to 100,000 CFU/mL)) | Aeromonas sp growth grade, 30 day ([6]; 5.0% weight/volume): 4 (1000 to 10,000 colonies countable (thus 10,000 CFU/mL to 100,000 CFU/mL))
